Assay results as given in patent US6436911B1, “IL-12 production inhibitor” (Seikagaku Corporation, priority 1999, dated 2002).

Key:
MRL-lpr/lpr mice [1] = assay: Biochemical blood test: plasma creatinine (CRE) and urea nitrogen (BUN) in MRL-lpr/lpr mice; assay type: in vivo; details: Example 3; L4 3.2 mg/kg i.n.; 6 weeks; day before autopsy (FIG. 4)
Description: 9-Week old MRL lpr/lpr mice, C57BL/6 mice and ICR mice were purchased from Japan Charles River Co., Ltd. and preliminarily maintained for 6 weeks before divided into groups. The groups used were as follows.
Each of the test substance was dissolved in distilled water at a predetermined concentration to prepare a solution to be administered. The solution was intermittently administered 3 times per week for 6 weeks (total […]). Observation was performed for 45 days from the start of administration through the autopsy. Other conditions and methods were the same as those of Example 2.
Blood was collected from the orbital venous plexus and plasma creatinine level (CRE) and plasma urea nitrogen level (BUN) were measured by using an automatic analyzer for clinical chemistry (COBAS MIRA S: Nippon Roche) at the time of the grouping and on the day before the autopsy.

[2] = system: peritoneal macrophages isolated from MRL mice; assay: LPS-stimulated IL-12 p70 production in peritoneal macrophages from MRL lpr/lpr mice; assay type: cell-based; details: for IL-12 p70 production, simultaneous treatment with LPS and test substance: LPS 100 ng/ml, various concentrations, 8-week-old and 39-week-old MRL mice (FIG. 6; L4L4 FIG. 12)
Description: Five to seven milliliters of ice-cooled Hank's balanced salt solution was injected in the abdominal cavities of 8- to 39-week-old MRL lpr/lpr mice and extracted 5 minutes later to collect resident peritoneal cells. The collected cells were cultured overnight in RPMI medium contained in a 96-well flat-bottom plate at 37° C. in the presence of 5% CO2. After the cultivation, non-adherent cells were removed and adherent cells were used as peritoneal macrophages for the experiment.
The cells were treated with lipopolysaccharide (LPS, List Biological Laboratories, Inc.) for 24 hours to stimulate IL-12 production. The concentration of IL-12 p70 in the cell culture supernatant was measured by using an IL-12 p70 ELISA kit (Endogen, Inc.) to evaluate the IL-12 production. As for the measured values, the average value and the standard deviation were obtained. Unless otherwise mentioned, the statistical significance was examined by the Williams' multiple comparison test.
The stimulation was performed for 24 hours in the medium containing LPS (100 ng/ml) and various concentrations of L4, and then the IL-12 production was evaluated.
Macrophages were treated with 100 ng/ml of LPS for 0, 2 or 6 hours, and then the medium was replaced with a fresh medium containing 1000 ng/ml of L4 or a fresh medium only (L4(-)) (consequently, IL-12 produced by the pretreatment was removed). 24 hours after the replacement of the medium, the IL-12 production was evaluated.
First, macrophages were treated with L4 at various concentrations for 24 hours and the medium was replaced with a medium containing 100 ng/ml of LPS. 24 hours after the replacement of the medium, the IL-12 production was evaluated.
The IL-12 production in the macrophages of MRL-lpr/lpr mice, pretreated with or without 1000 ng/ml of L4 for 24 hours then treated with 100 ng/ml of LPS for 24 hours (L4 pretreatment), and the treated with 100 ng/ml LPS together with or without 1000 ng/ml of L4 (simultaneous treatment), were compared. In FIG. 11, * and ** indicate that there was statistical significance at levels of p<0.05 and p<0.01, respectively, according to the Student's t-test.

MRL-lpr/lpr mice [3] = assay: Hematological test: white blood cell count (WBC) in blood of MRL-lpr/lpr mice; assay type: in vivo; details: day before autopsy
Source text: (§1) MRL lpr/lpr mice, C57BL/6 mice and ICR mice as normal controls were purchased from Japan Charles River Co., Ltd. and preliminarily maintained for several weeks before divided into groups. Blood was collected from the orbital venous plexus, and they were allocated according to the plasma creatinine level (CRE) as a first marker so that there would be no difference in the average value and the standard deviation for the creatinine level among the groups. They were also grouped so that there would be no difference in the plasma nitrogen level (BUN), white blood cell count (WBC), platelet count (PLT) and weight between groups as far as possible.
The test substances were administered from the next day of the grouping. Each of the test substances was dissolved in distilled water at a predetermined concentration to prepare a solution to be administered. The solution was intermittently administered 3 times per week for 4 weeks (total 12 doses). […]
Blood was collected from the orbital venous plexus at the time of the grouping and on the day before the autopsy. The white blood cell count (WBC) was measured by using an automatic cytometer for multiple test items (Sysmex K-2000: Toa Medical Electronics).
(§2) The average value and the standard deviation were calculated for the measured values obtained as above and the statistical significance was analyzed by Williams' multiple comparison test. […]

[4] = system: synovial cells collected from human rheumatoid arthritis patients; assay: IL-12 p70 production in synovial cells from rheumatoid arthritis patients (LPS + IFN-γ); assay type: cell-based; details: LPS 500 ng/ml, IFN-γ 50 U/ml
Description: A cell suspension was prepared by suspending synovial cells collected from human rheumatoid arthritis patients in RPMI1640 medium (Sigma) containing 500 ng/ml of LPS, 50 U/ml of recombinant mouse interferon-γ (IFN-γ) and 10% fetal bovine serum at a concentration of 1×10^6cells/ml.
100 μl of the aforementioned cell suspension was dispensed to a 96-well flat-bottom plate and further 100 μl of L4 solution of which concentration was adjusted to be twice the final concentration in the RPMI1640 medium was added thereto. Then, the cells were cultured at 37° C. in the presence of 5% CO2 for 24 hours.
(§3) Subsequently, the plate was centrifuged to collect the culture supernatant. The IL-12 concentration in the supernatant was measured as described above.

[5] = system: peritoneal macrophages isolated from C57BL/6 mice; assay: LPS-stimulated IL-12 p70 production in peritoneal macrophages from C57BL/6 mice; assay type: cell-based
IL-12 = assay: Plasma IL-12 level (IL-12 p70 ELISA) in MRL-lpr/lpr mice after administration; assay type: in vivo; details: day before autopsy
Source text: Plasma IL-12 levels were examined using MRL-lpr/lpr mice treated with and without L4. Macrophages from MRL-lpr/lpr mice are known to markedly produce IL-12 and their serum IL-12 level is high (J. Exp. Med., 183, pp. 1447-1459 (1996)).
as §1
The test substances were administered from the next day of the grouping. […]
Blood was collected from the orbital venous plexus at the time of the grouping and on the day before the autopsy. The IL-12 concentration in blood plasma was measured by using an IL-12 p70 ELISA kit (Endogen, Inc.).
as §2

[6] = system: peritoneal macrophages isolated from C3H/HeN mice; assay: IL-12 production in peritoneal macrophages from C3H/HeN mice (LPS + IFN-γ); assay type: cell-based; details: LPS 200 ng/ml, IFN-γ 2 U/ml, 24 hours, various L3 concentrations (FIG. 14)
Description: Ice-cooled phosphate buffered saline (PBS) was injected into abdominal cavities of C3H/HeN mice. After the abdomen of each mouse was massaged, the PBS was collected and centrifuged to obtain macrophages. A cell suspension was prepared by suspending the obtained macrophages in RPMI1640 medium (Sigma) containing 200 ng/ml of LPS, 2 U/ml of recombinant mouse interferon-γ (IFN-γ) and 10% fetal bovine serum at a concentration of 1×10^6 cells/ml. 100 μl of the cell suspension was dispensed on a 96-well flat-bottom plate and further 100 μl of L3 solution of which concentration was adjusted to be twice the final concentration in the RPMI1640 medium was added thereto. Then, the cells were cultured at 37° C. in the presence of 5% CO2 for 24 hours.
as §3

Structure (SMILES)	plasma creatinine level (CRE) (MRL-lpr/lpr mice [1])	plasma urea nitrogen level (BUN) (MRL-lpr/lpr mice [1])	IL-12 p70 production, L4 pretreatment compared with simultaneous treatment ([2]; 1000 ng/ml L4, 100 ng/ml LPS, 24 hours (FIG. 11))	IL-12 p70 production, stimulation with LPS after pretreatment with L4, high doses ([2]; L4 100 ng/ml or more, 24 hours, then LPS 100 ng/ml 24 hours (FIG. 9))	IL-12 p70 production, stimulation with LPS after pretreatment with L4 ([2]; L4 various concentrations 24 hours, then LPS 100 ng/ml 24 hours (FIG. 9))	IL-12 p70 production, treatment with L4 after preliminary stimulation with LPS ([2]; LPS 100 ng/ml for 2 and 6 hours, then 1000 ng/ml L4, 24 hours (FIG. 8))	IL-12 p70 production, simultaneous treatment with LPS and test substance ([2]; 24 hours)	white blood cell count (WBC) in blood (MRL-lpr/lpr mice [3]; Example 2, low dose L4 administered groups, 3 times per week for 4 weeks, vs DW group, p<0.05 (FIG. 1))	white blood cell count (WBC) in blood (MRL-lpr/lpr mice [3]; Example 3, L4 3.2 mg/kg i.n., 3 times per week for 6 weeks, p<0.05 (FIG. 3))	IL-12 production in synovial cells at 1000 ng/ml ([4]; 1000 ng/ml L4, 24 hours (FIG. 13))	IL-12 production in synovial cells ([4]; 24 hours, various L4 concentrations (FIG. 13))	IL-12 p70 production, stimulation with LPS after pretreatment with L4 ([5]; C57BL/6 mice, pretreated with L4 for 36 hours (FIG. 10))	IL-12 p70 production, simultaneous treatment with LPS and L4 ([5]; LPS 100 ng/ml, 24 hours, various concentrations of L4, C57BL/6 mice (FIG. 7))	IL-12 level in plasma (IL-12; Example 2, L4 1.6 mg/kg i.n. and 80 mg/kg p.o., 3 times per week for 4 weeks, p<0.05/p<0.01 (FIG. 2))	IL-12 level in plasma (IL-12; Example 3, L4 3.2 mg/kg i.n., 3 times per week for 6 weeks, p<0.01 (FIG. 5))	IL-12 production of macrophages [6]
CC(=O)N[C@H]1C(O)O[C@H](COS(=O)(=O)O)[C@@H](O[C@@H]2O[C@H](COS(=O)(=O)O)[C@H](O)[C@H](O)[C@H]2O)[C@@H]1O (stereo partly drawn) [L4, Gal(6S)β1-4GlcNAc(6S)]	significant decrease	significant decrease	inhibits IL-12 production more efficiently compared with the simultaneous treatment	almost completely inhibited	L4 pretreatment inhibits the IL-12 production	Inhibition of the IL-12 production by L4 was also observed	dose-dependent inhibitory effect on the IL-12 production	significant inhibition of the increase in WBC	significant inhibition of the increase in WBC	almost halved	tendency that addition of L4 inhibited IL-12 production	The same results were also obtained	The same result was also obtained	significant inhibition of the increase in IL-12	significant inhibition of the increase in the IL-12	–
CC(=O)N[C@H]1C(O)O[C@H](CO)[C@@H](O[C@@H]2O[C@H](COS(=O)(=O)O)[C@H](O)[C@H](O)[C@H]2O)[C@@H]1O (stereo partly drawn) [L3, Gal(6S)β1-4GlcNAc]	–	–	–	–	–	–	–	–	–	–	–	–	–	–	–	inhibited IL-12 production of macrophages in a dose-dependent manner
CC(=O)NC1C(O)OC(COS(=O)(=O)[O-])C(OC2OC(COS(=O)(=O)[O-])C(O)C(OC3OC(COS(=O)(=O)[O-])C(OC4OC(COS(=O)(=O)[O-])C(O)C(O)C4O)C(O)C3NC(C)=O)C2O)C1O.[Na+].[Na+].[Na+].[Na+] [L4L4, Gal(6S)β1-4GlcNAc(6S)β1-3Gal(6S)β1-4GlcNAc(6S)]	–	–	–	–	–	–	The same result was obtained	–	–	–	–	–	–	–	–	–
